Experimental findings from US7838263B2, “Methods of identifying a plant with an Nsf1 locus” (E. I. du Pont de Nemours and Company, priority 2006, dated 2010) are described below.

The subject of assay [1] is transgenic soybean plants comprising the maize Nsf1 gene. Nature of the assay: T1 transgenic soybean plant herbicide efficacy testing. In kind it is in vivo, Glycine max. Conditions: sprayed at V3 stage; for tolerance of one of the two T1 events compared to the controls: first event, 8 DAT and 15 DAT; for tolerance of the second T1 event compared to the controls: 15 DAT. Here is the method:
Two events from the T0 generation were advanced to the T1 generation for additional herbicide efficacy testing of the Nsf1 gene. Replicates of two controls, as well as T1 plants, were grown in greenhouse experiments and sprayed with mesotrione at one of two rates (200 g/ha or 50 g/ha), nicosulfuron (70 g/ha), or rimsulfuron (35 g/ha) at the V3 growth stage. All herbicide treatments were applied with 1% w/w modified seed oil adjuvant in a spray volume of 374 L/ha. Plants were rated for herbicide response at eight days after application using a 1 to 9 score as used in the T0 testing.
An expanded herbicide efficacy test was developed in a second T1 plant experiment for the same two events advanced from the T0 generation. […] All herbicide treatments were applied in a spray volume of 287 L/ha. Isoxaflutole (140 g/ha), topramezone (140 g/ha), and sulcotrione (140 g/ha) were applied with 1% w/w modified seed oil adjuvant. Diuron treatments (560 g/ha) were applied with 1% w/w petroleum crop oil adjuvant. Acifluorfen (4480 g/ha), sulfentrazone (140 g/ha), flumioxazine (140 g/ha), and dicamba (280 g/ha) were applied with 0.25% w/w nonionic surfactant. Rimsulfuron (35 g/ha) treatments were applied with 0.5% w/w basic blend adjuvant. At eight and fifteen days after treatment, plants were rated visually for crop injury using a 0 to 100 scale (0=no injury to 100=dead plant).

For assay [2], the system named is corn lines. Put plainly: Testing of maize plants for sensitivity to nicosulfuron. It is filed as in vivo, Zea mays. Conditions: misted with 2.3 mM nicosulfuron, 0.5% v/v Kinetic surfactant, approximately V3 stage. Here is the method:
In order to determine if the Nsf1 allele was consistent across maize lines, three corn lines with unknown sensitivity levels to nicosulfuron were tested to determine their reaction and then evaluate their sequences. Plants were misted with a 2.3 mM nicosulfuron, 0.5% v/v Kinetic surfactant solution at approximately the V3 stage. Both known resistant and sensitive lines were also grown and sprayed as controls. […] Three corn lines with unknown sensitivity levels to nicosulfuron were tested to determine their reaction. Plants were misted with a 2.3 mM nicosulfuron, 0.5% v/v Kinetic surfactant solution at approximately the V3 stage. Both known resistant and sensitive lines were also grown and sprayed as controls.

Assay [3] has as its system T0 soybean plants transformed with the Nsf1 gene. Put plainly: T0 transgenic soybean plant herbicide response, visual score 1 to 9. It is filed as in vivo, Glycine max. An excerpt: Two different constructs comprising the Nsf1 gene were created to examine herbicide efficacy of the gene when transformed into soybean. The Nsf1 constructs were co-bombarded with a 35S:HYG insert to permit event selection using hygromycin. At the V2 to V6 growth stage, a total of 127 T0 plants were sprayed with 35 g/ha rimsulfuron. All rimsulfuron treatments were applied with 0.2% w/w nonionic surfactant in a spray volume of 287 L/ha. In addition to the T0 plants, replications of three different controls were included—two positive and one negative. Individual plants were evaluated for herbicide response at ten days after treatment, and assigned a visual response score from 1 to 9 (1=dead plant to 9=no effect observed). Based upon high tolerance scores to the initial rimsulfuron spray, five T0 events were sprayed with an additional 35 g/ha rimsulfuron. Plants were rated for visual tolerance using a 1 to 9 score at ten days after the second application.

Take `Cc1c(C(=O)c2cnn(C)c2O)ccc(S(C)(=O)=O)c1C1=NOCC1` [topramezone]: in assay [1], the “tolerance of one of the two T1 events compared to the controls” value (from here on “tolerance of one … compared to the controls”) is “significantly better tolerance” and the “tolerance of the second T1 event compared to the controls” value is “significantly better tolerance”.
As to `O=C(O)c1cc(Oc2ccc(C(F)(F)F)cc2Cl)ccc1[N+](=O)[O-]` [acifluorfen], in assay [1], the “tolerance of one … compared to the controls” value is given as “significantly better tolerance” and the “tolerance of the second T1 event compared to the controls” value was “significantly better tolerance”.
Regarding `COc1cc(OC)nc(NC(=O)NS(=O)(=O)c2ncccc2C(=O)N(C)C)n1` [nicosulfuron], the “reaction of line A188 to nicosulfuron” value in assay [2] (line A188) is listed as “sensitive”. Further, the “reaction of line Black Mexican Sweet (BMS) to nicosulfuron” value in assay [2] (line BMS) is “resistant”. Also, the “reaction of line Q66 to nicosulfuron” value in assay [2] (line Q66) is “resistant”.
Take `C#CCN1C(=O)COc2cc(F)c(N3C(=O)C4=C(CCCC4)C3=O)cc21` [flumioxazine]: in assay [1], the “tolerance of one … compared to the controls” value was “significantly better tolerance”.
On the same count and under the same terms, under `CN(C)C(=O)Nc1ccc(Cl)c(Cl)c1` [diuron] stands “significantly better tolerance”.
With `CCS(=O)(=O)c1cccnc1S(=O)(=O)NC(=O)Nc1nc(OC)cc(OC)n1` [rimsulfuron], the “T0 events with improved level of tolerance after an additional application” value in assay [3] (after an additional application of 35 g/ha rimsulfuron) is reported as “Three of 51”. The “T0 events with improved tolerance compared to the controls” value in assay [3] (ten days after treatment with 35 g/ha rimsulfuron, V2 to V6 stage) is on record as 4 of 51. Also, in assay [1], the “tolerance of one … compared to the controls” value is “significantly better tolerance” and the “tolerance of the second T1 event compared to the controls” value is recorded as “significantly better tolerance”.
`CS(=O)(=O)c1ccc(C(=O)C2C(=O)CCCC2=O)c(Cl)c1` [sulcotrione]: in assay [1], the “tolerance of one … compared to the controls” value was “significantly better tolerance” and the “tolerance of the second T1 event compared to the controls” value is listed as “significantly better tolerance”.
Regarding `CS(=O)(=O)c1cc(C(F)(F)F)ccc1C(=O)c1cnoc1C1CC1` [isoxaflutole], in assay [1], the “tolerance of one … compared to the controls” value was “significantly better tolerance” and the “tolerance of the second T1 event compared to the controls” value is “significantly better tolerance”.
`Cc1nn(-c2cc(NS(C)(=O)=O)c(Cl)cc2Cl)c(=O)n1C(F)F` [sulfentrazone]: in assay [1], the “tolerance of one … compared to the controls” value was “significantly better tolerance” and the “tolerance of the second T1 event compared to the controls” value is “significantly better tolerance”.
As for `CS(=O)(=O)c1ccc(C(=O)C2C(=O)CCCC2=O)c([N+](=O)[O-])c1` [mesotrione], in assay [1], the “tolerance of one … compared to the controls” value is “significantly better tolerance” and the “tolerance of the second T1 event compared to the controls” value is “significantly better tolerance”.
On to `COc1c(Cl)ccc(Cl)c1C(=O)O` [dicamba], for which, in assay [1], the “tolerance of one … compared to the controls” value was “significantly better tolerance” and the “tolerance of the second T1 event compared to the controls” value is “significantly better tolerance”.
